Laboratory results reported in paper PMC12754783 (2025).
Blank lines part the entries; values can stand above or below the compound they belong to.

Legend:
[1] = test system: 222T_mA (DNA, G4) TGGGTTGGGAAGGGTTGGGT; experiment: native ESI-MS screening (single concentration); conditions: 0.5 mM K+, 100 mM TMAA pH 6.8, 10 µM DNA, 20 µM ligand
[2] = test system: T24 (DNA, single strand) TTTTTTTTTTTTTTTTTTTTTTTT; experiment: native ESI-MS titration; conditions: 0.5 mM K+; 100 mM TMAA pH 6.8, 10 µM DNA, up to 40 µM ligand
[3] = test system: 1XAV (DNA, G4) TGAGGGTGGGTAGGGTGGGTAA; experiment: native ESI-MS screening (single concentration); conditions: 0.5 mM K+, 100 mM TMAA pH 6.8, 10 µM DNA, 20 µM ligand
[4] = test system: 222T (DNA, G4) TGGGTTGGGTTGGGTTGGGT; experiment: native ESI-MS screening (single concentration); conditions: 0.5 mM K+, 100 mM TMAA pH 6.8, 10 µM DNA, 20 µM ligand
[5] = test system: 1XAV (DNA, G4) TGAGGGTGGGTAGGGTGGGTAA; experiment: native ESI-MS titration; conditions: 0.5 mM K+; 100 mM TMAA pH 6.8, 10 µM DNA; stepwise KD1
[6] = test system: 5YEY (DNA, G4) GGGTTAGGGTTAGGGTTTGGG; experiment: native ESI-MS screening (single concentration); conditions: 0.5 mM K+; 100 mM TMAA pH 6.8, 10 µM DNA, 20 µM ligand; stepwise KD1 (KD2 40)
TG4T (DNA, G4) TGGGGT = experiment: native ESI-MS screening (single concentration); conditions: K+ 0.5 mM (KCl) with 100 mM TMAA, or NH4+ 150 mM; source does not say which; pH 6.8, 10 µM DNA, 20 µM ligand; stepwise KD1
[7] = test system: 26TTA (DNA, G4) TTAGGGTTAGGGTTAGGGTTAGGGTT; experiment: native ESI-MS screening (single concentration); conditions: 0.5 mM K+; 100 mM TMAA pH 6.8, 10 µM DNA, 20 µM ligand; stepwise KD1
[8] = test system: 22GT_18T (DNA, G4) GGGTTAGGGTTAGGGTTTGGGT; experiment: native ESI-MS screening (single concentration); conditions: 0.5 mM K+; 100 mM TMAA pH 6.8, 10 µM DNA, 20 µM ligand; stepwise KD1
[9] = test system: 222T (DNA, G4) TGGGTTGGGTTGGGTTGGGT; experiment: UV melting 295 nm; conditions: 0.5 mM K+; 100 mM TMAA pH 6.8; 10 µM DNA, 20 µM QQPQ; two transitions
[10] = test system: 5YEY (DNA, G4) GGGTTAGGGTTAGGGTTTGGG; experiment: native ESI-MS titration; conditions: 0.5 mM K+, 100 mM TMAA pH 6.8, 10 µM DNA
[11] = test system: 5YEY (DNA, G4) GGGTTAGGGTTAGGGTTTGGG; experiment: UV melting 295 nm; conditions: 0.5 mM K+; 100 mM TMAA pH 6.8; 10 µM DNA, 20 µM QQPQ
[12] = test system: T30177TT (DNA, G4) TTGTGGTGGGTGGGTGGGT; experiment: UV melting 295 nm; conditions: 0.5 mM K+; 100 mM TMAA pH 6.8; 10 µM DNA, 20 µM QQPQ; two transitions
[13] = test system: 21G (DNA, G4) GGGTTAGGGTTAGGGTTAGGG; experiment: native ESI-MS titration; conditions: 0.5 mM K+; 100 mM TMAA pH 6.8, 10 µM DNA; KD1 differs 20-fold from 5YEY
[14] = stepwise KD1, exact value in Table S3

Structure (SMILES): CC(=O)Nc1cccc2c(OCCCN)cc(C(=O)NCc3cccc(C(=O)Nc4cccc5c(OCCCN)cc(C(=O)O)nc45)n3)nc12
KD1 ([1]; stepwise KD1 (KD2 14)): 25 µM | KD [2]: > 100 µM | KD1 ([3]; stepwise KD1 (KD2 27)): 15 µM | KD1 ([4]; stepwise KD1 (KD2 22)): 4.8 µM

Structure (SMILES): CC(=O)Nc1cccc2c(OCCCN)cc(C(=O)Nc3cccc4c(OCCCN)cc(C(=O)Nc5cccc6c(OCCCN)cc(C(=O)Nc7cccc8c(OCCCN)cc(C(=O)Nc9cccc%10c(OCCCN)cc(C(=O)Nc%11cccc%12c(OCCCN)cc(C(=O)Nc%13cccc%14c(OCCCN)cc(C(=O)Nc%15cccc%16c(OCCCN)cc(C(=O)O)nc%15%16)nc%13%14)nc%11%12)nc9%10)nc78)nc56)nc34)nc12
KD1 [5]: 28 ± 6.7 µM

Structure (SMILES): CC(=O)Nc1cccc2c(OCCCN)cc(C(=O)Nc3cccc4c(OCCCN)cc(C(=O)Nc5cccc6c(OCCCN)cc(C(=O)Nc7cccc8c(OCCCN)cc(C(=O)Nc9cccc%10c(OCCCN)cc(C(=O)O)nc9%10)nc78)nc56)nc34)nc12
KD1 [10, 14]: < 10 µM

Further lines, results first:

KD1 ([1]; stepwise KD1 (KD2 3.4)): 8.9 µM | KD [2]: > 100 µM | KD1 ([3]; stepwise KD1 (KD2 7.4)): 5.2 µM | KD1 [6]: 75 µM | KD1 ([4]; stepwise KD1 (KD2 5.4)): 2.3 µM
Structure (SMILES): CC(=O)Nc1cccc2c(OCCCN)cc(C(=O)NCc3cccc(C(=O)NCc4cccc(C(=O)Nc5cccc6c(OCCCN)cc(C(=O)O)nc56)n4)n3)nc12

KD1 (TG4T (DNA, G4) TGGGGT): ~ 5 µM | KD1 [7]: ~ 5 µM | KD1 ([1]; stepwise KD1 (KD2 1.0)): 2.2 µM | KD [2]: > 100 µM | KD1 [8]: ~ 5 µM | ΔTm [9]: ~ +26 °C | KD1 ([10]; stepwise KD1 (KD2 200 ± 70), screening gave 1.5): 0.54 ± 0.1 µM | ΔTm [11]: +8.2 °C | KD1 ([3]; stepwise KD1 (KD2 1.5)): 0.5 µM | ΔTm [12]: 17 °C | KD1 ([4]; stepwise KD1 (KD2 2.1)): 0.5 µM
Structure (SMILES): CC(=O)Nc1cccc2c(OCCCN)cc(C(=O)Nc3cccc4c(OCCCN)cc(C(=O)NCc5cccc(C(=O)Nc6cccc7c(OCCCN)cc(C(=O)O)nc67)n5)nc34)nc12

KD1 ([1]; stepwise KD1 (KD2 4.5)): 12 µM | KD1 [10, 14]: < 10 µM | KD1 [13]: 330 ± 23 µM | KD1 ([4]; stepwise KD1 (KD2 2.0)): 1.1 µM | KD1 [5]: 0.075 ± 0.059 µM
Structure (SMILES): CC(=O)Nc1cccc2c(OCCCN)cc(C(=O)Nc3cccc4c(OCCCN)cc(C(=O)Nc5cccc6c(OCCCN)cc(C(=O)Nc7cccc8c(OCCCN)cc(C(=O)O)nc78)nc56)nc34)nc12
